Measured values from patent USRE30731E, “Enkephalin analogues” (priority 1977, dated 1981).

Columns and labels:
mouse vas deferens = mouse vas deferens (M.V.D.) assay; type: cell-based; conditions: Met Enkephalin = 100%
Text: (II)M.V.D. stands for mouse vas deferens
Kosterhtz, H. W. & Leslie. F. M. Br. J. Pharmac. 53, 371, 381,

rat brain membranes = assay: radio receptor assay (R.R.A.): displacement of tritiated naloxone from rat brain membranes; type: binding; conditions: based on concentration displacing 50% of (3H)naloxone (1 nM) from rat brain membranes; 0.1 M NaCl/50 mM Tris pH 7.4; 15 minutes; bacitracin
Method: (III)R.R.A. stands for radio receptor assay; based on the concentration
required to displace 50% of tritiated naloxone from rat brain membranes.
The displacements .[.replacements.]. were carried out against (^3
H)naloxane (lnM) in 0.1 M sodium chloride/50mM Tris buffer at pH 7.4;
incubations were for 15 minutes in the .Iadd.presence
.Iaddend..[.absence.]. of bacitracin. For general reference to the method
see literature as discussed in "Opiate Receptor Mechanisms". S. H. Snyder
and S. Matthysse eds, MIT Press, 1975.

rats = assay: tail flick assay, intraventricular administration; type: in vivo, rat; conditions: administered intraventricularly to rats
Text: Also, we have indications of in vivo analgesic effects of the analogues.

## 5-Amino-6-(4'-hdyroxyphenyl)-hexanoyl-glycyl-L-phenylalanyl-L-methionine a mide [Analogue H211]
Mouse vas deferens
  Activity Relative to Met Enkephalin, M.V.D.: 0.9%
Rat brain membranes
  Activity Relative to Met Enkephalin, R.R.A.: 8%
rats
  analgesia (tail flick assay): analgesia lasting for several minutes
